ChEMBL document CHEMBL1201862, “PubChem BioAssay data set” (2004)
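48-hour exposure; five concentrations; linearly interpolated endpoints. GI50: concentration for 50% inhibition of growth.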 Activity calls are given as the source filed them. Rule as the data show it: active = GI50 up to about 1.1 µM and inactive = higher.

Key:
Test in all cases: DTP human tumour cell line panel, 48 h
NCI/ADR-RES = test system: NCI/ADR-RES
HCC 2998 = test system: HCC 2998
COLO 205 = test system: COLO 205
HT-29 = test system: HT-29
T47D = test system: T47D
K562 = test system: K562
SNB-19 = test system: SNB-19
M14 = test system: M14
U-251 = test system: U-251
A549 = test system: A549
SK-MEL-5 = test system: SK-MEL-5
HOP-62 = test system: HOP-62
NCI-H23 = test system: NCI-H23
LOX IMVI = test system: LOX IMVI
OVCAR-8 = test system: OVCAR-8
DU-145 = test system: DU-145
SW-620 = test system: SW-620
MDA-MB-435 = test system: MDA-MB-435
PC-3 = test system: PC-3
MOLT-4 = test system: MOLT-4
786-0 = test system: 786-0
SF-268 = test system: SF-268
CCRF-CEM = test system: CCRF-CEM
MCF7 = test system: MCF7
HCT-116 = test system: HCT-116
IGROV-1 = test system: IGROV-1
TK-10 = test system: TK-10
SK-OV-3 = test system: SK-OV-3
UO-31 = test system: UO-31
Hs-578T = test system: Hs-578T
HOP-92 = test system: HOP-92
SR = test system: SR
MDA-MB-231 = test system: MDA-MB-231
UACC-257 = test system: UACC-257
CAKI-1 = test system: CAKI-1
UACC-62 = test system: UACC-62
SK-MEL-28 = test system: SK-MEL-28
BT-549 = test system: BT-549
HL-60 = test system: HL-60
SF-295 = test system: SF-295
KM12 = test system: KM12
SNB-75 = test system: SNB-75
RXF 393 = test system: RXF 393
SF-539 = test system: SF-539
NCI-H226 = test system: NCI-H226
OVCAR-4 = test system: OVCAR-4
SN12C = test system: SN12C
MDA-N = test system: MDA-N
SK-MEL-2 = test system: SK-MEL-2
RPMI-8226 = test system: RPMI-8226
OVCAR-5 = test system: OVCAR-5
NCI-H460 = test system: NCI-H460
OVCAR-3 = test system: OVCAR-3
ACHN = test system: ACHN
HCT-15 = test system: HCT-15
A498 = test system: A498
EKVX = test system: EKVX
NCI-H522 = test system: NCI-H522

In the case of `COc1ccc2c(c1)nc1n2C(c2c(F)cccc2F)SC1` (stereo not given), the GI50 (NCI/ADR-RES) is reported as 38.2 µM (inactive), the GI50 (HCC 2998) is reported as 55.1 µM (inactive) and the GI50 (COLO 205) is reported as 40.6 µM (inactive). For the same molecule, the GI50 (HT-29) was 47.3 µM (inactive), the GI50 (T47D) was 71.6 µM (inactive) and the GI50 (K562) was 43.8 µM (inactive). For the same molecule, the GI50 (SNB-19) was 21.4 µM (inactive), the GI50 (M14) was 56.9 µM (inactive) and the GI50 (U-251) was 55.7 µM (inactive). The GI50 (A549) was 34.8 µM (inactive), the GI50 (SK-MEL-5) was 24.2 µM (inactive) and the GI50 (HOP-62) was 76.4 µM (inactive). For the same molecule, the GI50 (NCI-H23) was 29 µM (inactive), the GI50 (LOX IMVI) was 45.6 µM (inactive) and the GI50 (OVCAR-8) was 83.8 µM (inactive). For the same molecule, the GI50 (DU-145) was > 100 µM (inactive), the GI50 (SW-620) was 60.5 µM (inactive) and the GI50 (MDA-MB-435) was 26.2 µM (inactive). The GI50 (PC-3) was 27.8 µM (inactive), the GI50 (MOLT-4) was 35.2 µM (inactive) and the GI50 (786-0) was 48.2 µM (inactive). The GI50 (SF-268) was 32.2 µM (inactive), the GI50 (CCRF-CEM) was 47.5 µM (inactive) and the GI50 (MCF7) was 38.3 µM (inactive). For the same molecule, the GI50 (HCT-116) was 31.5 µM (inactive), the GI50 (IGROV-1) was 47.5 µM (inactive) and the GI50 (TK-10) was 94.6 µM (inactive). For the same molecule, the GI50 (SK-OV-3) was 40.8 µM (inactive), the GI50 (UO-31) was 56 µM (inactive) and the GI50 (Hs-578T) was 35.2 µM (inactive). The GI50 (HOP-92) was 76 µM (inactive), the GI50 (SR) was 13.5 µM (inactive) and the GI50 (MDA-MB-231) was > 100 µM (inactive). For the same molecule, the GI50 (UACC-257) was 45.7 µM (inactive), the GI50 (CAKI-1) was > 100 µM (inactive) and the GI50 (UACC-62) was 29.1 µM (inactive). For the same molecule, the GI50 (SK-MEL-28) was > 100 µM (inactive), the GI50 (BT-549) was 59 µM (inactive) and the GI50 (HL-60) was 27.9 µM (inactive). The GI50 (SF-295) was 32.4 µM (inactive), the GI50 (KM12) was 25 µM (inactive) and the GI50 (SNB-75) was 39.3 µM (inactive). For the same molecule, the GI50 (RXF 393) was 53.7 µM (inactive), the GI50 (SF-539) was 47.3 µM (inactive) and the GI50 (NCI-H226) was 62.7 µM (inactive). The GI50 (OVCAR-4) was > 100 µM (inactive), the GI50 (SN12C) was > 100 µM (inactive) and the GI50 (MDA-N) was 40 µM (inactive). For the same molecule, the GI50 (SK-MEL-2) was 31.6 µM (inactive), the GI50 (RPMI-8226) was 30.6 µM (inactive) and the GI50 (OVCAR-5) was > 100 µM (inactive). The GI50 (NCI-H460) was 39.4 µM (inactive), the GI50 (OVCAR-3) was 62.8 µM (inactive) and the GI50 (ACHN) was > 100 µM (inactive). The GI50 (HCT-15) was 35.2 µM, the GI50 (A498) was > 100 µM (inactive) and the GI50 (EKVX) was 36.1 µM (inactive).

With `O=C1C(=O)c2ccccc2C=C1[N+](=O)[O-]` the GI50 (NCI/ADR-RES) was 23 µM (inactive), the GI50 (HCC 2998) was 80.9 µM (inactive) and the GI50 (COLO 205) was > 100 µM (inactive). For the same molecule, the GI50 (HT-29) was > 100 µM (inactive), the GI50 (T47D) was 32.8 µM (inactive) and the GI50 (K562) was 53.5 µM (inactive). The GI50 (SNB-19) was > 100 µM (inactive), the GI50 (M14) was 71.1 µM (inactive) and the GI50 (U-251) was 40.1 µM (inactive). For the same molecule, the GI50 (A549) was > 100 µM (inactive), the GI50 (SK-MEL-5) was 17 µM (inactive) and the GI50 (HOP-62) was > 100 µM (inactive). The GI50 (NCI-H23) was 34.2 µM (inactive), the GI50 (LOX IMVI) was 25.8 µM (inactive) and the GI50 (OVCAR-8) was 33.7 µM (inactive). The GI50 (DU-145) was 49 µM (inactive), the GI50 (SW-620) was 32.9 µM (inactive) and the GI50 (MDA-MB-435) was 16.8 µM (inactive). The GI50 (PC-3) was 48.2 µM (inactive), the GI50 (MOLT-4) was 29.3 µM (inactive) and the GI50 (786-0) was 45.1 µM (inactive). For the same molecule, the GI50 (SF-268) was 38.3 µM (inactive), the GI50 (NCI-H522) was 34.9 µM (inactive) and the GI50 (CCRF-CEM) was 27.9 µM (inactive). The GI50 (MCF7) was 22.9 µM (inactive), the GI50 (HCT-116) was 26.2 µM (inactive) and the GI50 (IGROV-1) was 13.8 µM (inactive). For the same molecule, the GI50 (TK-10) was > 100 µM (inactive), the GI50 (SK-OV-3) was > 100 µM (inactive) and the GI50 (UO-31) was > 100 µM (inactive). The GI50 (Hs-578T) was 57.1 µM (inactive), the GI50 (HOP-92) was 55.8 µM (inactive) and the GI50 (SR) was 29.4 µM (inactive). The GI50 (MDA-MB-231) was 18.1 µM (inactive), the GI50 (UACC-257) was 25.2 µM (inactive) and the GI50 (CAKI-1) was 87.9 µM (inactive). For the same molecule, the GI50 (UACC-62) was 27.7 µM (inactive), the GI50 (SK-MEL-28) was > 100 µM (inactive) and the GI50 (BT-549) was > 100 µM (inactive). The GI50 (HL-60) was 22.7 µM (inactive), the GI50 (SF-295) was 97.3 µM (inactive) and the GI50 (KM12) was 70.3 µM (inactive). The GI50 (SNB-75) was > 100 µM (inactive), the GI50 (RXF 393) was 24.4 µM (inactive) and the GI50 (SF-539) was 43.1 µM (inactive). For the same molecule, the GI50 (NCI-H226) was > 100 µM (inactive), the GI50 (OVCAR-4) was 31.3 µM (inactive) and the GI50 (SN12C) was 29.4 µM (inactive). For the same molecule, the GI50 (MDA-N) was 19.7 µM (inactive), the GI50 (SK-MEL-2) was 28.2 µM (inactive) and the GI50 (RPMI-8226) was 31 µM (inactive). For the same molecule, the GI50 (OVCAR-5) was > 100 µM (inactive), the GI50 (NCI-H460) was 30.2 µM (inactive) and the GI50 (OVCAR-3) was 23.4 µM (inactive). The GI50 (ACHN) was > 100 µM (inactive), the GI50 (HCT-15) was 32.7 µM and the GI50 (A498) was > 100 µM (inactive). For the same molecule, the GI50 (EKVX) was 19.3 µM (inactive).
